According to patent US20240083857A1, “2-Methyl-Quinazolines” (Bayer Pharma Aktiengesellschaft, priority 2017, published 2024):
Where two headings read alike, the source gives them in different places.

Legend:
[1] = target: human SOS1 (loading of human K-Ras^G12C-GDP with fluorescent GTP-analog) (Homo sapiens, UniProt Q07889); experiment: Biochemical assay 3: K-Ras^G12C activation assay by hSOS1 (HTRF); settings: no GTP; for IC50: read-out: Assay 3 (KRAS-Activation by SOS no GTP) activity expressed as IC50; for inhibition at 20 µM: read-out: Assay 3 (KRAS-Activation by SOS no GTP) activity expressed as % inhibition at 20 μM
[2] = target: Epidermal Growth Factor Receptor (EGFR) (Homo sapiens (Human), UniProt P00533); experiment: EGFR kinase assay (TR-FRET); type: biochemical; settings: read-out: EGFR kinase inhibition IC50
Chain of Epidermal Growth Factor Receptor (EGFR) (P00533 25-1210): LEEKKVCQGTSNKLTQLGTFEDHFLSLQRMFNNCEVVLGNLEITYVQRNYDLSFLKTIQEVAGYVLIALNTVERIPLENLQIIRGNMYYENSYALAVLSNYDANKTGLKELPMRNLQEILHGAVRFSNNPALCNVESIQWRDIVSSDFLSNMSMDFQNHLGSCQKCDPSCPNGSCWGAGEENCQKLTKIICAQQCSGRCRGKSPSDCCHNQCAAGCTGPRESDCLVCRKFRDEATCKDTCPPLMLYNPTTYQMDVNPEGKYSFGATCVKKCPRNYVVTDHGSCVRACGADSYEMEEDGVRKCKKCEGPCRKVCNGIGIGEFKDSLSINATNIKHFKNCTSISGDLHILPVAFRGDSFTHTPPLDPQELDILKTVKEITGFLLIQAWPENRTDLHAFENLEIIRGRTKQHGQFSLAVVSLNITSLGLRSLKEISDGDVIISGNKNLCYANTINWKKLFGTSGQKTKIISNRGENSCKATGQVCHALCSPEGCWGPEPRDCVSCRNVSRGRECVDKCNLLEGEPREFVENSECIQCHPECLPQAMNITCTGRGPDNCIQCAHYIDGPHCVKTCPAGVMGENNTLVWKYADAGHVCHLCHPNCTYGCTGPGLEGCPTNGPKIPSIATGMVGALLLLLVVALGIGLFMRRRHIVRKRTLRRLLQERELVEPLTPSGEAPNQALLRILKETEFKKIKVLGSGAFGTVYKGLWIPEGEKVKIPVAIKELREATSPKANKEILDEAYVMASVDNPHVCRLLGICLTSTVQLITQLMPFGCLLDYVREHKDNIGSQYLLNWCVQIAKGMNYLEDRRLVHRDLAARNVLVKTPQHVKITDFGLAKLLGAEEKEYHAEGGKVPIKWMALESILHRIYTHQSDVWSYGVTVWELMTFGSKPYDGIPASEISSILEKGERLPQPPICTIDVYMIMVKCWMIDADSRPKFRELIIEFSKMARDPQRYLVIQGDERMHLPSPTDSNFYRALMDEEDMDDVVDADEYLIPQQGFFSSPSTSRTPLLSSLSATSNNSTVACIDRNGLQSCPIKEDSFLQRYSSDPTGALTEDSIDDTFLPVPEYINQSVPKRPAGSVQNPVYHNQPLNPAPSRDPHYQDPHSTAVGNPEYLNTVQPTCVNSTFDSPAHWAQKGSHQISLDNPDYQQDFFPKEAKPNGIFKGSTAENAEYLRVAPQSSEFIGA
In short: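 Read-out is the 665/620 nm HTRF ratio, from a Tb-cryptate anti-phosphotyrosine antibody and streptavidin-XL665 bound to phosphorylated biotin-peptide substrate. The enzyme, A431-derived EGFR (~3 U/ml), was given 15 min compound pre-binding at 22° C in Hepes pH 7.0 with Mg2+/Mn2+ before reaction.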

Row | SMILES | IC50 [1] | IC50 ([2]; unit inferred) | IC50 ([2]; values given in μM) | inhibition at 20 µM [1]
1 | COc1cc2nc(C)nc(NC(C)c3cccc(Oc4ccccc4)c3)c2cc1OC (single isomer, unassigned; enantiomer 1) [Example 228, 6,7-dimethoxy-2-methyl-N-[1-(3-phenoxyphenyl)ethyl]quinazolin-4-amine, Enantiomer 1] | 1.43 µM | 0.341 µM | – | –
2 | COc1cc2nc(C)nc(NC(C)c3cccc4cccnc34)c2cc1OC (single isomer, unassigned; enantiomer 1) [Example 230, 6,7-dimethoxy-2-methyl-N-[1-(quinolin-8-yl)ethyl]quinazolin-4-amine, Enantiomer 1] | 13.3 µM | – | > 20 µM | –
3 | COc1cc2nc(C)nc(N[C@H](C)c3cccc(Cl)c3)c2cc1OC [Example 2, N-[(1R)-1-(3-chlorophenyl)ethyl]-6,7-dimethoxy-2-methylquinazolin-4-amine] | 0.537 µM | 16.3 µM | – | –
4 | COC(=O)c1cc2c(C(C)Nc3nc(C)nc4cc(OC)c(OC)cc34)cccc2s1 (stereo not shown) [Example 3, methyl 4-{1-[(6,7-dimethoxy-2-methylquinazolin-4-yl)amino]ethyl}-1-benzothiophene-2-carboxylate] | 0.231 µM | – | > 20 µM | –
5 | COc1cc2nc(C)nc(NC(C)c3cccc4ccoc34)c2cc1OC (stereo not shown) [Example 4, N-[1-(1-benzofuran-7-yl)ethyl]-6,7-dimethoxy-2-methylquinazolin-4-amine] | 0.479 µM | – | > 20 µM | –
6 | COc1cc2nc(C)nc(NC(C)c3ccc(F)c4[nH]ncc34)c2cc1OC (stereo not shown) [Example 5, N-[1-(7-fluoro-1H-indazol-4-yl)ethyl]-6,7-dimethoxy-2-methylquinazolin-4-amine] | 5.06 µM | – | > 20 µM | –
7 | COc1cc2nc(C)nc(NC(C)c3cc(F)cc4[nH]ncc34)c2cc1OC (stereo not shown) [Example 6, N-[1-(6-fluoro-1H-indazol-4-yl)ethyl]-6,7-dimethoxy-2-methylquinazolin-4-amine] | 4.98 µM | – | > 20 µM | –
8 | COc1cc2nc(C)nc(NC(C)c3cccc4cn(C)nc34)c2cc1OC (stereo not shown) [Example 8, 6,7-dimethoxy-2-methyl-N-[1-(2-methyl-2H-indazol-7-yl)ethyl]quinazolin-4-amine] | – | – | > 20 µM | 14%
9 | COc1cc2nc(C)nc(NC(C)c3cccc4nn(C)cc34)c2cc1OC (stereo not shown) [Example 9, 6,7-dimethoxy-2-methyl-N-[1-(2-methyl-2H-indazol-4-yl)ethyl]quinazolin-4-amine] | 5.96 µM | – | > 20 µM | –
10 | COc1cc2nc(C)nc(NC(C)c3cccc4cnn(C)c34)c2cc1OC (stereo not shown) [Example 10, 6,7-dimethoxy-2-methyl-N-[1-(1-methyl-1H-indazol-7-yl)ethyl]quinazolin-4-amine] | 6.14 µM | – | > 20 µM | –
11 | COc1cc2nc(C)nc(NC(C)c3cccc4c3CCCC4)c2cc1OC (stereo not shown) [Example 11, 6,7-dimethoxy-2-methyl-N-[1-(5,6,7,8-tetrahydronaphthalen-1-yl)ethyl]quinazolin-4-amine] | 0.54 µM | – | > 20 µM | –
12 | COc1cc2nc(C)nc(N[C@H](C)c3ccc(F)cc3)c2cc1OC [Example 12, N-[(1R)-1-(4-fluorophenyl)ethyl]-6,7-dimethoxy-2-methylquinazolin-4-amine] | 1.29 µM | – | > 20 µM | –
13 | COc1cc2nc(C)nc(NC(C)c3cccc4[nH]nc(C)c34)c2cc1OC (stereo not shown) [Example 13, 6,7-dimethoxy-2-methyl-N-[1-(3-methyl-1H-indazol-4-yl)ethyl]quinazolin-4-amine] | 7.73 µM | – | > 20 µM | –
14 | COc1cc2nc(C)nc(NC(C)c3cc4cccc(O)c4o3)c2cc1OC (stereo not shown) [Example 28, 2-{-[(6,7-dimethoxy-2-methyquinazolin-4-yl)amino]ethyl}-1-benzofuran-7-ol] | – | – | > 20 µM | 46%
15 | COC(=O)c1ccccc1-c1ccc(C(C)Nc2nc(C)nc3cc(OC)c(OC)cc23)s1 (stereo not shown) [Example 178, methyl 2-(5-{1-[(6,7-dimethoxy-2-methylquinazolin-4-yl)amino]ethyl}thiophen-2-yl)benzoate] | 7.12 µM | – | > 20 µM | –
16 | COc1cc2nc(C)nc(NC(C)c3ccc(-c4ccccc4CN4CCC(C(N)=O)CC4)s3)c2cc1OC (stereo not shown) [Example 179, 1-[2-(5-{1-[(6,7-dimethoxy-2-methylquinazolin-4-yl)amino]ethyl}thiophen-2-yl)benzyl]piperidine-4-carboxamide] | 0.214 µM | – | > 20 µM | –
17 | COc1cc2nc(C)nc(NC(C)c3ccc(-c4ccccc4CCO)s3)c2cc1OC (stereo not shown) [Example 180, 2-[2-(5-{1-[(6,7-dimethoxy-2-methylquinazolin-4-yl)amino]ethyl}thiophen-2-yl)phenyl]ethanol] | 0.82 µM | – | > 20 µM | –
18 | COc1cc2nc(C)nc(NC(C)c3ccc(-c4cccc(CCO)c4)s3)c2cc1OC (stereo not shown) [Example 181, 2-[3-(5-{1-[(6,7-dimethoxy-2-methylquinazolin-4-yl)amino]ethyl}thiophen-2-yl)phenyl]ethanol] | – | – | > 20 µM | 45%
19 | COc1cc2nc(C)nc(NC(C)c3ccc(-c4ccccc4CN4CC5(COC5)C4)s3)c2cc1OC (stereo not shown) [Example 182, 6,7-di methoxy-2-methyl-N-[1-{5-[2-(2-oxa-6-azaspiro[3.3]hept-6-ylmethyl)phenyl]thiophen-2-yl}ethyl]quinazolin-4-amine] | 0.121 µM | – | > 20 µM | –
20 | COc1cc2nc(C)nc(NC(C)c3cc(C)c(Br)s3)c2cc1OC (stereo not shown) [Example 183, N-[1-(5-bromo-4-methylthiophen-2-yl)ethyl]-6,7-dimethoxy-2-methylquinazolin-4-amine] | 9.14 µM | – | > 20 µM | –
21 | COc1cc2nc(C)nc(NC(C)c3ccc(-c4ccccc4CN4CCCC4)s3)c2cc1OC (stereo not shown) [Example 184, 6,7-dimethoxy-2-methyl-N-[1-{5-[2-(pyrrolidin-1-ylmethyl)phenyl]thiophen-2-yl}ethyl]quinazolin-4-amine] | 0.122 µM | – | > 20 µM | –
22 | COc1cc2nc(C)nc(NC(C)c3ccc(-c4ccccc4CN4CCC[C@H]4CN(C)C)s3)c2cc1OC (stereo partly drawn) [Example 185, N-[1-{5-[2-({(2S)-[(dimethylamino)methyl]pyrrolidin-1-yl}methyl)phenyl]thiophen-2-yl}ethyl]-6,7-dimethoxy-2-methylquinazolin-4-amine] | 0.323 µM | – | > 20 µM | –
23 | Cc1nc(N[C@H](C)c2cccc3ccccc23)c2ccccc2n1 [Example 186, 2-methyl-N-[(1R)-1-(naphthalen-1-yl)ethyl]quinazolin-4-amine] | – | – | > 20 µM | 22%
24 | COc1cc2nc(C)nc(N[C@H](C)c3ccc(Br)cc3)c2cc1OC [Example 187, N-[(1R)-1-(4-bromophenyl)ethyl]-6,7-dimethoxy-2-methylquinazolin-4-amine] | 1.26 µM | – | > 20 µM | –
25 | COc1cc2nc(C)nc(N[C@H](C)c3ccc(S(C)(=O)=O)cc3)c2cc1OC [Example 188, 6,7-dimethoxy-2-methyl-N-{(1R)-1-[4-(methylsulfonyl)phenyl]ethyl}quinazolin-4-amine] | – | – | > 20 µM | 38%
26 | COc1cc2nc(C)nc(N[C@H](C)c3cccc(C)c3)c2cc1OC [Example 190, 6,7-dimethoxy-2-methyl-N-[(1R)-1-(3-methylphenyl)ethyl]quinazolin-4-amine] | 0.553 µM | – | > 20 µM | –
